“And” between values parts separate entries of the source, which are not always exact repeats. Equal values may be shown once. Inconclusive results and toxic doses are left out.
Tested on: L1210 leukemia ip in BDF1 mice, survival T/C
Assay: NCI In Vivo Anticancer Drug Screen. Data for tumor model L1210 Leukemia (intraperitoneal) in B6D2F1 (BDF1) mice
Conditions: endpoint: mean survival time, higher = longer survival
Summary of the method: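 In this screen, tumor-bearing mice given compound are compared to those given vehicle, and their survival values are reported as a treated-to-control quotient.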

[1] = dose: 50.0 mg/kg/injection, schedule: Q04DX003 (ip), vehicle: saline with Tween-80
[2] = dose: 100.0 mg/kg/injection, schedule: Q04DX003 (ip), vehicle: saline with Tween-80
[3] = dose: 100.0 mg/kg/injection, schedule: Q04DX003 (ip), vehicle: Klucel (hydroxypropylcellulose) (HPC)
[4] = dose: 200.0 mg/kg/injection, schedule: Q04DX003 (ip), vehicle: Klucel (hydroxypropylcellulose) (HPC)
[5] = dose: 75.0 mg/kg/injection, schedule: Q01DX001 (ip), vehicle: saline
[6] = dose: 150.0 mg/kg/injection, schedule: Q01DX001 (ip), vehicle: saline

CN[C@H]1CCc2cc(OC)c(OC)c(OC)c2-c2ccc(OC)c(=O)cc21
T/C (dose: 0.14 mg/kg/injection, schedule: Q01DX009 (ip), vehicle: saline): 95 % of control
T/C (dose: 0.23 mg/kg/injection, schedule: Q01DX009 (ip), vehicle: saline): 104 % of control
T/C (dose: 0.39 mg/kg/injection, schedule: Q01DX009 (ip), vehicle: saline): 112 % of control
T/C (dose: 0.39 mg/kg/injection, schedule: Q04DX003 (ip), vehicle: saline): 101 % of control
T/C (dose: 0.65 mg/kg/injection, schedule: Q01DX009 (ip), vehicle: saline): 110 % of control
T/C (dose: 0.65 mg/kg/injection, schedule: Q04DX003 (ip), vehicle: saline): 102 % of control
T/C (dose: 1.0 mg/kg/injection, schedule: Q03HX008 (ip), vehicle: saline): 118 % of control
T/C (dose: 1.08 mg/kg/injection, schedule: Q01DX009 (ip), vehicle: saline): 110 % of control
T/C (dose: 1.08 mg/kg/injection, schedule: Q04DX003 (ip), vehicle: saline): 101 % of control
T/C (dose: 1.8 mg/kg/injection, schedule: Q04DX003 (ip), vehicle: saline): 101 % of control
T/C (dose: 2.0 mg/kg/injection, schedule: Q01DX004 (ip), vehicle: saline): 106 % of control
T/C (dose: 2.0 mg/kg/injection, schedule: Q01DX004 (oral), vehicle: saline): 103 % of control
T/C (dose: 2.0 mg/kg/injection, schedule: Q03HX008 (ip), vehicle: saline): 120 % of control
T/C (dose: 3.0 mg/kg/injection, schedule: Q01DX001 (ip), vehicle: saline): 100 % of control
T/C (dose: 3.0 mg/kg/injection, schedule: Q04DX003 (ip), vehicle: saline): 95 % of control
T/C (dose: 4.0 mg/kg/injection, schedule: Q01DX001 (oral), vehicle: saline): 103 % of control
T/C (dose: 4.0 mg/kg/injection, schedule: Q01DX004 (ip), vehicle: saline): 106 % of control
T/C (dose: 4.0 mg/kg/injection, schedule: Q01DX004 (oral), vehicle: saline): 111 % of control
T/C (dose: 5.0 mg/kg/injection, schedule: Q01DX001 (ip), vehicle: saline): 103 % of control
T/C (dose: 5.3 mg/kg/injection, schedule: Q01DX001 (ip), vehicle: saline): 102 % of control
T/C (dose: 8.0 mg/kg/injection, schedule: Q01DX001 (ip), vehicle: saline): 101 % of control and 102 % of control
T/C (dose: 8.0 mg/kg/injection, schedule: Q01DX001 (oral), vehicle: saline): 108 % of control
T/C (dose: 8.0 mg/kg/injection, schedule: Q01DX004 (ip), vehicle: saline): 113 % of control
T/C (dose: 8.0 mg/kg/injection, schedule: Q01DX004 (oral), vehicle: saline): 111 % of control
T/C (dose: 8.0 mg/kg/injection, schedule: Q03HX008 (ip), vehicle: saline): 156 % of control
T/C (dose: 8.0 mg/kg/injection, schedule: Q## X002 (ip), vehicle: saline): 119 % of control
T/C (dose: 8.0 mg/kg/injection, schedule: Q## X003 (ip), vehicle: saline): 100 % of control
T/C (dose: 8.0 mg/kg/injection, schedule: Q## X008 (ip), vehicle: saline): 107 % of control
T/C (dose: 8.0 mg/kg/injection, schedule: Q## X016 (ip), vehicle: saline): 110 % of control
T/C (dose: 9.0 mg/kg/injection, schedule: Q01DX001 (ip), vehicle: saline): 104 % of control
T/C (dose: 12.0 mg/kg/injection, schedule: Q01DX001 (ip), vehicle: saline): 104 % of control
T/C (dose: 16.0 mg/kg/injection, schedule: Q01DX001 (ip), vehicle: saline): 105 % of control
T/C (dose: 16.0 mg/kg/injection, schedule: Q01DX001 (oral), vehicle: saline): 109 % of control
T/C (dose: 16.0 mg/kg/injection, schedule: Q01DX004 (ip), vehicle: saline): 118 % of control
T/C (dose: 16.0 mg/kg/injection, schedule: Q## X002 (ip), vehicle: saline): 98 % of control
T/C (dose: 16.0 mg/kg/injection, schedule: Q## X003 (ip), vehicle: saline): 112 % of control
T/C (dose: 16.0 mg/kg/injection, schedule: Q## X016 (ip), vehicle: saline): 112 % of control
T/C (dose: 16.0 mg/kg/injection, schedule: Q## X024 (ip), vehicle: saline): 100 % of control
T/C (dose: 18.0 mg/kg/injection, schedule: Q01DX001 (ip), vehicle: saline): 114 % of control
T/C (dose: 32.0 mg/kg/injection, schedule: Q01DX001 (ip), vehicle: saline): 101 % of control and 103 % of control
T/C (dose: 32.0 mg/kg/injection, schedule: Q01DX001 (oral), vehicle: saline): 119 % of control and 124 % of control
T/C (dose: 32.0 mg/kg/injection, schedule: Q01DX009 (ip), vehicle: saline): 102 % of control
T/C (dose: 32.0 mg/kg/injection, schedule: Q## X002 (ip), vehicle: saline): 117 % of control
T/C (dose: 32.0 mg/kg/injection, schedule: Q## X003 (ip), vehicle: saline): 104 % of control
T/C (dose: 32.0 mg/kg/injection, schedule: Q## X016 (ip), vehicle: saline): 110 % of control
T/C (dose: 64.0 mg/kg/injection, schedule: Q01DX001 (ip), vehicle: saline): 114 % of control and 116 % of control
T/C (dose: 64.0 mg/kg/injection, schedule: Q## X016 (ip), vehicle: saline): 89 % of control
T/C (dose: 128.0 mg/kg/injection, schedule: Q01DX001 (ip), vehicle: saline): 124 % of control
T/C (dose: 256.0 mg/kg/injection, schedule: Q01DX001 (ip), vehicle: saline): 123 % of control

CC(=O)OC1CC2(Cl)CC1(Cl)C(Cl)=C2Cl (stereo not drawn)
T/C [1]: 105 % of control
T/C (dose: 100.0 mg/kg/injection, schedule: Q01DX001 (ip), vehicle: other): 109 % of control
T/C [2]: 106 % of control
T/C (dose: 200.0 mg/kg/injection, schedule: Q01DX001 (ip), vehicle: other): 100 % of control
T/C (dose: 400.0 mg/kg/injection, schedule: Q01DX001 (ip), vehicle: other): 109 % of control
T/C (dose: 400.0 mg/kg/injection, schedule: Q04DX003 (ip), vehicle: saline with Tween-80): 103 % of control

CC(=O)c1cc(C)[nH]c1C
T/C (dose: 100.0 mg/kg/injection, schedule: Q01DX009 (ip), vehicle: saline sonified): 100 % of control
T/C [3]: 89 % of control
T/C [4]: 106 % of control
T/C (dose: 400.0 mg/kg/injection, schedule: Q01DX009 (ip), vehicle: saline sonified): 89 % of control

NNC(=S)Nc1cccc(Cl)c1
T/C [5]: 103 % of control
T/C [6]: 102 % of control

CN(C)CCOC(c1ccccc1)c1ccccc1
T/C (dose: 3.12 mg/kg/injection, schedule: Q01DX009 (ip), vehicle: saline): 92 % of control and 96 % of control
T/C (dose: 6.25 mg/kg/injection, schedule: Q01DX009 (ip), vehicle: saline): 102 % of control and 107 % of control
T/C (dose: 12.5 mg/kg/injection, schedule: Q01DX009 (ip), vehicle: saline): 100 % of control and 114 % of control
T/C (dose: 25.0 mg/kg/injection, schedule: Q01DX009 (ip), vehicle: saline): 100 % of control and 102 % of control
T/C (dose: 25.0 mg/kg/injection, schedule: Q04DX003 (ip), vehicle: saline): 97 % of control
T/C (dose: 50.0 mg/kg/injection, schedule: Q01DX009 (ip), vehicle: saline): 117 % of control and 91 % of control
T/C (dose: 50.0 mg/kg/injection, schedule: Q04DX003 (ip), vehicle: saline): 111 % of control

COc1cccc2c1C(=O)c1c(O)c3c(c(O)c1C2=O)C[C@@](O)(C(=O)COC(C)=O)C[C@@H]3OC1CC(N)C(O)C(C)O1 (stereo partly drawn)
T/C (dose: 0.45 mg/kg/injection, schedule: Q04DX003 (ip), vehicle: saline): 120 % of control
T/C (dose: 0.7 mg/kg/injection, schedule: Q04DX003 (ip), vehicle: saline): 167 % of control
T/C (dose: 1.6 mg/kg/injection, schedule: Q04DX003 (ip), vehicle: saline): 111 % of control
T/C (dose: 2.4 mg/kg/injection, schedule: Q04DX003 (ip), vehicle: saline): 104 % of control

CC(=O)C(C#N)c1c(C)cc(C)cc1C (stereo not drawn)
T/C (dose: 37.5 mg/kg/injection, schedule: Q04DX003 (ip), vehicle: saline): 97 % of control
T/C [5]: 97 % of control
T/C (dose: 75.0 mg/kg/injection, schedule: Q04DX003 (ip), vehicle: saline): 92 % of control
T/C [6]: 105 % of control
T/C (dose: 150.0 mg/kg/injection, schedule: Q04DX003 (ip), vehicle: saline): 96 % of control

CCCCCCCCCCCCCCC(S(=O)(=O)CC)S(=O)(=O)CC
T/C [3]: 95 % of control
T/C [4]: 100 % of control
T/C (dose: 400.0 mg/kg/injection, schedule: Q04DX003 (ip), vehicle: Klucel (hydroxypropylcellulose) (HPC)): 90 % of control

COc1ccc(/C=c2\[nH]c(=O)/c(=C/c3ccc(OC)c(OC)c3)[nH]c2=O)cc1OC
T/C (dose: 25.0 mg/kg/injection, schedule: Q04DX003 (ip), vehicle: saline with Tween-80): 92 % of control
T/C [1]: 89 % of control
T/C [2]: 86 % of control
